Structures are written as SMILES.

In the case of `O=c1ccc(S(=O)(=O)c2cccc(Br)c2)n[nH]1` [Example 4I, 6-(3-Bromo-benzenesulfonyl)-2H-pyridazin-3-one], the melting point – broadly, the temperature, or range, at which the solid turns liquid – is above 220 °C.

The values above are taken from patent US6872722B2, “Therapies for tissue damage resulting from ischemia” (Pfizer Inc, priority 2001, dated 2005).
